# In patent US7247734B2 (Vernalis (Cambridge) Limited, priority 2001, dated 2007):
# Assays:
# [1] = test system: HCT116 human colon tumour cells; assay: 96 h growth inhibition assay (SRB), HCT116; format: cell-based; settings: Homo sapiens, HCT-116; HCT116, 96 h
# Protocol: The growth inhibition assay employed was based on that described previously (Kelland et al., 1993). HCT116 and HT29 human colon tumour cells (American Tissue Culture Collection) were seeded into 96-well tissue culture plates (approximately 1600–2000 cells per well) and allowed to attach for 36 hours. Eight wells were treated with a single concentration from a range of compound concentrations and incubated for 96 hours. Cells were fixed using ice cold 10% trichloroacetic acid (TCA). Plates were then washed five times with water, air dried, and stained with 0.4% sulphorhodamine B (SRB) in 1% acetic acid for 10 minutes. The SRB stain was solubilised in 10 mM Tris-HCl and the absorbance measured at 540 nm using a Titertek Multiscan MCC/340 MKII plate reader (Flow Laboratories, IEC, Basingstoke, N.H.). The absorbance values correspond to total protein content and are used as a measure of cell growth.
# HCT116 cells = assay: Cellular protein by BCA assay after compound exposure (ELISA plates); format: cell-based, human; settings: for Cellular Protein (% DMSO controls): HCT116, 10 μM compound
# Protocol: Incubate at 37° for 30 min. • (6) Wash plates twice in PBS using an automated washer (Wellwash 5000 ten plate stacker-washer or Wellwash Ascent single plate washer, Thermo Labsystems, Basingstoke, UK). • (7) Block the plates by addition of blocking solution (100 μl) and incubate for 30 min. • (8) Add 100 μl primary antibody diluted to 0.95 μg/ml in PBS to each well and incubate plate for 1.5 h. Wash plates once with DELFIA® wash solution. • (9) Add 100 μl Europium labelled anti-mouse IgG diluted in DELFIA® assay buffer to 75 ng/ml and incubate for 1 hour. Wash plates once with DELFIA® wash solution as before. • (10) Add 100 μl DELFIA® enhancement solution to each well. • (11) Measure the fluorescence (615 nm) in Victor 2 1420 multilabel counter (Perkin Elmer Life Sciences, Milton Keynes, UK) using time-resolved measurement mode. • (12) Wash plates once with PBS and measure protein concentration by the addition of 200 μl BCA reagent to each well, shake for 1–2 min and incubate for 30 mins at 37° C. Read absorption at 570 nm. • (13) Express ELISA results by normalising to protein in the well (Eu counts (cpm) divided by OD@ 570 nm). Compare the effect of HSP90 inhibitors on HSP70 expression with DMSO treated controls. Comments • (1) Cells plated into 96 well plates are incubated in a plastic box to reduce evaporation from the outside wells. In addition, ELISA incubation steps are carried out in a 37° C. laboratory incubator and in a moist environment e.g., plastic box lined with damp tissue paper. • (2) All additions to the microtitre plate can be achieved using a multichannel pipette or for larger numbers of plates an automated dispenser such as a Multidrop (Thermo Labsytems, Basingstoke, UK). • (3) For convenience, if the effects of compounds are being studied at several time points the ELISA can be carried out in batches, plates being stored (in a container) at 4° C. following the fixation step. In this case the plates are washed only once following fixation and again immediately before the first ELISA step (step 6 above). In addition all the plates can be stored for subsequent protein estimation. • (4) Reproducibility of both the measured Europium counts and the protein measurements was between 10–15% (CV). • (5) DELFIA® reagents (see, e.g., Hemmila and Webb, 1997) have been routinely used in cell-based ELISAs. This endpoint provides high sensitivity and the time-resolved measurements reduce interference from non-specific fluorescence. However, it is also possible to use a horse radish peroxidase second antibody conjugate and either a calorimetric (e.g., tetramethylbenzidine) or chemiluminescent reagent (e.g., ECL reagent (Amersham Pharmacia Biotech, Little Chalfont, Bucks, UK) for endpoint measurement. • (6) It is recommended that a blank consisting of second-antibody only (i.e., no first antibody) together with an appropriate first antibody control (e.g., isotype matched IgG) are included in assays during the process of optimising reagent concentrations. Growth Inhibition Assay
# The effect of various compounds of the present invention on the expression of the molecular marker HSP70 was determined using the cell-based ELISA and a specific monoclonal antibody to HSP70 in HCT116 cells, as described above. Cellular protein following compound exposure was determined using BCA assay as described in the method.
SMILES,IC50 [1] [µM],Cellular Protein (% DMSO controls) (HCT116 cells; (48 h)) [%],Cellular Protein (% DMSO controls) (HCT116 cells; (time not given)) [%],"cellular protein measured by BCA, reduction of DMSO controls (HCT116 cells; HCT116, 10 μM)"
Cc1[nH]nc(-c2ccc(O)cc2O)c1-c1ccc2c(c1)OCCO2 [CCT018157],26,91.3,21.2,
"CCc1cc(-c2n[nH]c(C)c2-c2ccc3c(c2)OCCO3)c(O)cc1O [CCT018159, 4-[4-(2,3-Dihydro-benzo[1,4]dioxin-6-yl)-5-methyl-1H-pyrazol-3-yl]-6-ethyl-benzene-1,3-diol]",4.5,50.0,20.8,50–80%
